Measurements taken from US20150086618A1, “PHOSPHOLIPID MICELLAR AND LIPOSOMAL COMPOSITIONS AND USES THEREOF” (THE BOARD OF TRUSTEES OF THE UNIVERSITY OF ILLINOIS, priority 2008, published 2015).
Entries after “also recorded” stand apart in the source; their conditions may differ.

Assays:
[1] = α-helicity of LP17 and control peptide in saline and SSM; type: physicochemical; conditions: peptide 20 μM, SSM 5 mM
Method: The α-helicity of LP17 (20 μM) in saline and in SSM (5 mM) was tested. A control peptide ([…] (SEQ ID NO:2)) was also tested in saline and in SSM at the same concentrations.

TREM-1 = experiment: Mouse model of ALI induced by aerosolized LPS, LP17 (Example 13); type: in vivo, Wild-type mice; conditions: 3 nmol s.c.; free peptide 48 and 24 h before LPS, nanomicellar 48 h before LPS
Method: The efficacy of nanomicellar LP17 was tested in a mouse model of ALI induced by aerosolized LPS. Wild-type mice were treated with LP17 or control peptide and with LP17 or control peptide self-associated with nanomicelles (each, 3 nmol; a dose similar to that used in previous experiments). Free peptides were administered subcutaneously 48 and 24 h before administration of LPS. Peptides self-associated with nanomicelles were administered to the mice only 48 h before LPS nebulization. Mice were exposed to nebulized LPS in a dose of 1 mg/ml for 40 min as previously described (Sadikot et al., Am. J. Respir. Crit. Care Med. 164: 873-8, 2001.) Control mice were treated with nebulized endotoxin-free PBS. TREM-1 was induced in lungs of mice at 4 hours after treatment with LPS. After 4 h, a bronchoalveolar lavage was carried out to determine total cell count and neutrophil count. Lungs, liver, and spleen were harvested from the mice and frozen for RNA and protein extraction. Real-time RT-PCR was carried out to analyze fold induction in TREM-1 gene expression.

[2] = Blood glucose in mice with LPS-induced ALI (Example 17); type: in vivo; conditions: LPS-exposed mice, GLP-1 1250 μg/kg, cardiac puncture at conclusion
Method: Blood was obtained by cardiac puncture at the conclusion of the treatment. Median glucose concentration was 109, 183, 157, and 125 mg/dl, respectively.

ALI mice = experiment: LPS-nebulization acute lung injury model, treatment after start of LPS (Example 7); type: in vivo; conditions: cardiac puncture at conclusion of treatment; LPS-exposed mice
Method: Mice are induced with acute lung injury (ALI) by treatment with lipopolysaccharide (LPS) nebulization (as described by Sadikot et al. […]: 873-8, 2001; Koay et al., Am. J. Respir. Cell Mol. Biol. 26: 572-8, 2002). […]
A dose of drug was administered subcutaneously (s.c.) 30 min after initialization of aerosolized LPS nebulization. […] All mice were sacrificed 4 hr after completion of nebulization. For each animal, bronchoalveolar lavage was carried out and the lungs were removed for analysis. Data from untreated (control) mice (no LPS nebulization or drug treatment) was also included in the data analysis for comparison.

[3] = Fluorescence anisotropy of GLP-1(7-36) in SSM / SSMM or saline; type: physicochemical; conditions: GLP-1(7-36) 125 μM in saline; n=3
Excerpt: Fluorescence anisotropy. […] The data indicated an increased viscosity of the peptide surrounding in the presence of SSM in contrast to saline.
This hypothesis was studied via determination of peptide fluorimetric anisotropy in the presence and absence of nanomicelles. This technique measures rigidity (or rotational freedom) of fluorophores by intensity of emitted fluorescence polarized parallel and perpendicular to that of excitation beam. A molecule that is restricted in its rotational motion due to viscous environment will emit fluorescence that is predominantly parallel to its excitation light source, giving a high anisotropy value.

[4] = Hydrophilicity/hydrophobicity balance of peptide; type: physicochemical
[5] = DSPE-PEG2000:PxB saturation ratio by fluorescence spectroscopy; type: physicochemical; conditions: at saturation point
Method: To determine the saturation point for DSPE-PEG2000 with PxB, fluorescence spectroscopy was carried out. PxB concentration was fixed at 50 μM and the concentration of DSPE-PEG2000 was varied to allow DSPE-PEG2000:PxB ratios of 1:1, 3:1, 6:1, 10:1, 20:1, 60:1, and 100:1. A stock solution of DSPE-PEG2000 was prepared and allowed to equilibrate at 25° C. in the dark under argon gas for two hours. A stock solution of PxB (100 μM) was prepared in HEPES Buffer. Samples were prepared by pipetting the appropriate amount of buffer and stock solutions into each vial. Fluorescence measurements were made after allowing each sample to equilibrate for 1 hour in the dark at 25° C. 400 μl of each sample was measured three times by the spectrofluorometer. The maximum intensity of each sample was recorded from the spectrofluorometer and analyzed using Microsoft Excel and Sigma Plot.
To fit a curve to the graph of the data the equation was used because its shape best fit the data, where
When the lipid to peptide ratio approaches infinity, a plateau is reached in terms of the fluorescence intensity and the equation becomes where yp is the height of the plateau. […]
Using this value as y, the lipid to peptide saturation point can be calculated by substituting the values into the equation and solving for x, […]

[6] = Dynamic light scattering (NICOMP) particle size of PxB, PxB with DSPE-PEG2000 and SSM in saline; type: physicochemical; conditions: for particle size distribution with scale 10-10,000 nm: 6.9 mM PxB in saline, 2 hours, 25° C.
Method: In order to determine the optimum peptide to lipid ratio of PxB to SSM, fluorescence spectroscopy and NICOMP analysis were carried out on PxB at varying concentrations in sterile normal saline (SNS) and with DSPE-PEG2000 at a fixed concentration. In these experiments, PxB Sulphate (MW […], Research Products International Corp, Cat: P40160-1.0, Lot#003746), DSPE-PEG2000 (MW 2811 g/mol, Lipoid, Cat#PE18:0/18:0/PEG 2000, Lot#899346-1/10), Methanol, and HEPES Buffer (pH˜7.4) were used. Controls: SSM (1 mM) and Samples: PxB-SSM (1:1000) were prepared.
Specifically, PxB (at various concentrations ranging from 0.5 mM to 6.9 mM) in sterile normal saline (SNS) was incubated with DSPE-PEG2000 (1 mM). Stock solutions of PxB and DSPE-PEG2000 were prepared and equilibrated for 2 hours. After the 2 hour equilibration, stock solutions were characterized by dynamic light scattering (DLS) using the NICOMP 380 Submicron Particle Sizer (Particle Sizing Systems, Inc. Santa Barbara, Calif.). […] A SSM sample (1 mM) (n=1) was prepared in saline alone for comparison with the PxB-SSM samples. Concurrent samples of PxB (0.5, 1.0, 2.3 and 6.9 mM) were prepared in saline alone or with SSM (DSPE-PEG2000, 1 mM) (n=8). The samples were measured for 30 minutes using DLS at approximately 2, 24, and 48 hours after time 0.

## LQVTDSGLYRCVIYHPP (SEQ ID NO: 1) (listed as Mus musculus) [LP17]
[1]
  percent α-helicity in SSM compared to saline: significantly greater
TREM-1
  expression of TREM-1 mRNA: attenuated

## glucagon-like peptide I (7-36) [GLP-1]
[2]
  Median glucose concentration: 157 mg/dL
ALI mice
  Median blood glucose concentration: 157 mg/dL
[3]
  fluorescence anisotropy: 0.045±0.012
[4]
  hydrophilicity/hydrophobicity balance: ~0.987

## polymyxin B [PxB]
[5]
  molecules of PxB per micelle: 3.6
[6]
  critical micelle concentration (CMC) of PxB: 1.0 to 2.3 mM
  particle size distribution with scale 10-10,000 nm: did not show peaks
[6]; 0.5 mM PxB, saline alone or with 1.0 mM DSPE-PEG2000, 24 hours
  particle size (diameter), INT-WT NICOMP: approximately 520 nm
[6]; 1.0 mM PxB, 24 hours
  particle size (diameter): 520 nm
[6]; 1.0 mM PxB, saline alone or with 1.0 mM DSPE-PEG2000, 2 hours
  particle size (diameter), INT-WT NICOMP: 240 nm
[6]; 2.3 mM PxB
  large aggregates observed or not: large aggregates were observed
[6]; 2.3 mM PxB, saline alone or with 1 mM DSPE-PEG2000, 2 hours
  particle size (diameter), INT-WT NICOMP: approximately 850 nm
[6]; listed as PxB sulfate
  particle size distribution with scale 10-10,000 nm: no large aggregates
[6]; 6.9 mM PxB, 24 and 48 hour time points
  average particle size (diameter): 517 nm
[6]; 6.9 mM PxB, 48 hours
  particle size (diameter), VOL-WT NICOMP: 4 nm
[6]; 6.9 mM PxB, saline alone or with 1 mM DSPE-PEG2000, 2 hours, listed as PxB sulfate
  particle size (diameter), INT-WT NICOMP: 640 nm
[6]; 6.9 mM PxB, saline alone or with 1 mM DSPE-PEG2000, 48 hours
  particle size (diameter), INT-WT NICOMP: 4 nm
[6]; 6.9 mM PxB, saline alone or with 1 mM DSPE-PEG2000, 48 hours, listed as PxB sulfate
  particle size (diameter), INT-WT NICOMP: 517 nm
[6]; all concentrations tested (0.5-6.9 mM), saline, 2-48 hours
  aggregation of PxB: showed aggregation of the peptide; also recorded: formed aggregates
[6]; range of concentrations tested, 10 μM to 23 mM
  PxB aggregate formation: aggregates formed
